Holding throughout (test): DTP human tumour cell line panel, 48 h
The test system of test [1] is OVCAR-4 ovarian.
Test [2] concerns DU-145 prostate.
For test [3], the system named is MDA-N.
In test [4] the test system is K-562 leukemia.
For test [5], the system named is LOX IMVI melanoma.
In test [6] the test system is NCI-H522 lung.
The subject of test [7] is KM12 colon.
Test [8] relates to CAKI-1 renal.
Test [9] concerns HL-60(TB) leukemia.
Test [10] concerns SR leukemia.

SMILES strings stand for the structures. Several values for one entry are separate records, joined by “and”; a condition that tells them apart may be missing. Equal entries are not always repeated.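 A five-concentration, 48-hour dose response in 96-well plates underlies each endpoint, interpolated linearly between surrounding concentrations. The concentration for 50% growth inhibition is given as GI50. TGI: total growth inhibition.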

Consider 24 compounds from PubChem BioAssay (NCI).

As usually defined, the TGI is the concentration giving total growth inhibition. A low value points to greater sensitivity of the cells. Broadly, the GI50 is the concentration at which growth is held to half of that of the control.

`COc1ccc2c(c1)-c1[nH]c3ccccc3c1CC2`: the TGI in test [1] is 32.4 µM; in [2] it was 33.5 µM; in test [3], 31.6 µM; in [4] it was above 100 µM; in test [5], 36.3 µM; in test [6], 20.3 µM. Further, the results for the TGI in test [7] and in test [8] were 26.8 µM and 29.4 µM, respectively.

Take `O=C1NC2(C=Cc3c(ccc4ccccc34)O2)Oc2ccccc21` (stereo not drawn): the TGI in test [1] is above 100 µM; in test [4], above 100 µM; in test [5], 39.9 µM; in test [6], 38.8 µM; in [9] it was 27.4 µM; in test [7], 41.1 µM. The compound further had a TGI in [10] of 34.5 µM.

In the case of `Cc1ccc2c(=O)c(-c3n[nH]c(=S)s3)c[nH]c2n1`, the TGI in [1], in [2], in [3], in test [4], in test [5] and in test [6] was above 100 µM in each case. Moreover, the TGI in [9], in [7] and in test [8] was above 100 µM throughout.

On to `COC[C@@H](Cc1ccc(OC)c(OC)c1)[C@@H](COC)Cc1ccc(OC)c(OC)c1`, for which the TGI in test [4], in test [5], in test [6], in test [9], in test [7] and in test [10] was above 100 µM throughout.

For the compound `COP(C)(=O)C(Cc1c[nH]c2ccccc12)NC(=O)OCc1ccccc1` (stereo not drawn), the total growth inhibition concentration (TGI) in [1], in [2], in [3], in test [4], in [5] and in [9] was above 100 µM in each case. Moreover, the TGI in [7] and in [8] was above 100 µM in each case.

As for `NCCCC[C@H](N)C(=O)Nc1ccc(-c2nc3ccccc3s2)cc1Cl`, the total growth inhibition concentration (TGI) in test [2] is 18 µM; in [3] it was 9.36 µM; in test [4], above 25 µM; in [6], 11 µM; in test [7], 7.81 µM; in test [8], 19.2 µM.

As to `CC(C)N(C(C)C)P(OCCC#N)OC1CC(n2cnc3c(=O)[nH]cnc32)OC1COC(=O)NCCCCCCNC(=O)OC(C)(C)c1ccc(-c2ccccc2)cc1` (stereo not drawn), the TGI was found to be 38.2 µM in [1]; 37.5 µM in test [4]; 32.7 µM in test [5]; 32.6 µM in [6]; 36.4 µM in [9]; 35.5 µM in [7]. For the same compound, in test [8], the TGI is above 100 µM.

For the compound `COc1ccc2[nH]c(O)c(/C=c3/cc4c(c(-c5ccc(F)cc5)n3)=Nc3ccccc3-4)c2c1`, the GI50 was 1800 nM in test [1]; 2970 nM in test [2]; 2450 nM in test [4]; 1640 nM in test [5]; 1860 nM in test [6]; 9.2 µM in test [9]. Also, the GI50 in test [7] was 1780 nM; in test [8] it was 18.2 µM; in test [10], 1070 nM. The TGI is 4.12 µM in test [1]; 7.96 µM in [2]; 7.95 µM in [4]; 3.2 µM in [5]; 5.19 µM in test [6]; above 100 µM in [9]. The TGI amounted to 4.46 µM in [7], 36.8 µM in [8] and 6.65 µM in test [10].

As for `COC(=O)C1C2CC3C(OC(=O)C31)C2OC(=O)[C@](OC)(c1ccccc1)C(F)(F)F` (stereo partly drawn), the TGI in test [1], in test [4], in test [5], in test [6], in test [9] and in test [7] was above 100 µM throughout. Moreover, the concentration for total growth inhibition (TGI) in test [8] and in test [10] was above 100 µM throughout.

Take `CCN(CC)CCNc1ccc2ncn3c4cc(=O)ccc4c(O)c1c23`: the TGI in test [1] was 13.5 µM; in test [4], 30 µM; in test [5], 5.91 µM; in test [6], 5.36 µM; in test [9], 11.9 µM; in test [7] it was 22.1 µM. Moreover, the TGI stood at 13.4 µM in test [8] and 9.75 µM in test [10].

Regarding `COc1ccccc1N=C1SCCN1C(=S)Nc1ccc(S(=O)(=O)/N=C/N(C)C)cc1`, the TGI in test [1], in [2], in [3], in test [4], in test [5] and in [9] was above 100 µM in each case. Besides, the TGI in [7] and in test [8] was above 100 µM each time.

Take `OC(c1ccccc1)(c1cccnc1)C(O)(c1ccccc1)c1cccnc1` (stereo not drawn): the TGI in [2], in test [3], in test [6], in [9], in test [7] and in test [8] was above 100 µM each time.

Turning to `c1ccc(C2[C@@H]3CCCc4ccccc4C3=NN2c2ccccc2)cc1` (stereo partly drawn), the concentration for total growth inhibition (TGI) in test [1], in test [4], in [5], in [6], in test [9] and in test [7] was above 100 µM each time. In test [10], this compound came in with a TGI above 100 µM.

For the compound `Cc1cc(C)c(N=Nc2c(O)c(S(=O)(=O)O)cc3cc(S(=O)(=O)O)ccc23)cc1C`, the TGI in test [1], in [2], in [3], in test [4], in test [5] and in test [6] was above 100 µM in each case. The TGI in test [7] and in test [8] was above 100 µM in each case.

With `CCCCCCCCCCSCC(CO)NC(=O)/C=C/c1c(C)[nH]c(=O)[nH]c1=O` (stereo not drawn), the concentration for 50% growth inhibition (GI50) in [1] was 912 nM and 192 nM; in test [8], 1.01 µM and 3.68 µM. Further, the TGI in test [1] was 4.01 µM; in test [4], above 50 µM; in test [5], 23.8 µM and > 50 µM; in test [6] it was 1.68 µM and 6.76 µM; in [9], > 35.2 µM and 6.35 µM; in test [7] it was above 50 µM. In test [8], the TGI is 8.25 µM and > 50 µM.

With `COc1ccc(C2C(Cl)C(=O)N2NC(=O)Cc2ccccc2)cc1OC` (stereo not drawn), the TGI in test [1], in [4], in test [5], in test [6], in test [9] and in [7] was above 100 µM each time. Moreover, the total growth inhibition concentration (TGI) in [8] and in [10] was above 100 µM throughout.

Turning to `O=C1C[C@H](c2ccc(O)c(O)c2)Oc2cc(O)cc(O)c21`, the TGI in [1], in test [4], in [5], in test [6], in [9] and in test [7] was above 100 µM each time. Further, the TGI in test [8] and in test [10] was above 100 µM each time.

Regarding `CC(=O)n1ccc2c(Cl)ncnc21`, the TGI in [4] was above 100 µM; in test [5], above 100 µM; in test [6] it was above 54.4 µM; in test [9], above 100 µM; in [7], above 100 µM; in test [8], above 100 µM. The same compound registered a TGI in test [10] above 100 µM.

Take `O=[N+]([O-])c1cc(Cl)ccc1S(=O)(=O)N1CCCc2cc(Cl)ccc21`: the TGI in test [1], in [2], in test [3], in test [4], in test [5] and in test [7] was above 100 µM each time. Moreover, the TGI in [8] is above 100 µM.

`COc1cc2c(cc1OCCCCCOc1cc3c(cc1OC)C(=O)N1CCC[C@H]1CN3)N=C[C@@H]1CCCN1C2=O`: the concentration for total growth inhibition (TGI) in test [1] is above 100 µM; in test [2], above 100 µM; in test [4], 17.6 µM; in test [5] it was 3.06 µM; in test [6], 3.65 µM; in test [9] it was 30 µM. Besides, the figures for the TGI in test [7], in test [8] and in [10] were 15.2 µM, 44.1 µM and 1.11 µM, respectively.

With `CN1B(c2ccccc2)N(C)C(=O)N(C)C1=O`, the TGI in [2], in test [3], in test [4], in test [9], in test [7] and in [8] was above 100 µM each time.

Take `CC(=O)O[C@H]1CC[C@H]2[C@@H]3CCC(C(C)=O)[C@H](C(=O)O)[C@H]3CC[C@]12C` (stereo partly drawn): the TGI in test [1], in [4], in [6], in [9], in [7] and in [8] was above 100 µM throughout. Besides, in [10], the concentration for total growth inhibition (TGI) is above 100 µM.

In the case of `c1ccc(CCn2cncn2)cc1`, the TGI in test [1], in test [4], in test [6], in test [9], in test [7] and in [10] was above 100 µM in each case.

For `O=C(NN=C1CCCCC1)NN=C1CCCCC1`, the total growth inhibition concentration (TGI) in test [1], in test [2], in test [3], in test [4], in test [5] and in test [7] was above 100 µM throughout. The TGI in test [8] was above 100 µM.
